Where two headings read alike, the source gives them in different places.
What was measured:
KRas G12D mutant = KRas G12D mutant (Homo sapiens (Human), UniProt P01116, G12D); experiment: Ras GTP Binding Domain Inhibition Assay, KRas G12D mutant; details: for inhibition at 20 µM: Table 7; for KRas G12D mutant + SOS: % inh. / KRas G12D mutant: % inh.: 20 uM, Table 8
Protocol: (§1) A Ras Superfamily Activity Assay (as disclosed in International Application No. PCT/US2018/038613, filed Jun. 20, 2018, which is incorporated by reference in its entirety) was used as a specific assay to evaluate compounds against the following for the following Ras Superfamily proteins: KRas wild type, KRas Q61H mutant, KRas G12C mutant, KRas G12D mutant, Rac-1, and Rho-A.
(§2) Buffer-I: • 25 mM Tris-HCl, pH 7.4 • 27 mM KCl • 137 mM NaCl • 1 mM MgCl2 • 1 mM DTT
(§3) Buffer-II: • 50 mM Tris-HCl, pH 7.0 • 1 mM MgCl2 • 1 mM DTT
(§4) The small GTPases proteins: KRas wild type. KRas Q61H mutant, KRas G12C mutant, KRas G12D mutants, Rac-1, and Rho-A were expressed as His-tagged proteins. In addition, the Guanosine nucleotide Exchange Factor (GEF) Sos protein (residues 556-1049) was expressed as a His-tagged protein. In cells, the guanine nucleotide exchange factor Sos protein promotes activation of Ras proteins by stimulating an exchange of GDP for GTP. The inclusion of Sos to the Ras GTP binding domain inhibition assay may be considered as an alternative representation of physiological cellular conditions for evaluating the inhibitory activity of some of the tested small molecules.
(§5) For the assay, all purified small GTPases proteins were diluted in Buffer-I or Buffer-II to a final concentration of 10-30 μg/mL. 200 μL of each diluted protein was added to a nickel-coated 96-well plate and incubated overnight at 4° C. Then the protein solution was discarded and 200 μL of Buffer-I or Buffer-II was added to each well in the presence of 1% DMSO. Compounds to be tested were added to the protein-coated wells at final concentration of 20 μM, and incubated for 3 hours at room temperature with and without 10-30 μg/mL of Sos added to the final hour of the incubation. When performing IC50 measurements a serial dilution of all tested concentrations was added. Then Cy3-GTP or Cy5-GTP was added to each well to a final concentration of 100 nM. The labeled GTP was incubated for 45 minutes at room temperature. Following GTP incubation, wells were washed 3× in Buffer-I or Buffer-II and 200 μL of Buffer-I or Buffer-II was added to each well. Following washes, the amount of bound labeled-GTP was measured using a SpectraMax M3 (Molecular Devices).

Smad2/3 phosphorylation = experiment: Phospho-Smad2/3 Inhibition Assay in Panc-1 (western blot); format: cell-based; details: Homo sapiens; for inhibition at 10 µM: 3 hours, PANC-1 stimulated with 10 ng/ml TGF-b1 for 1 hour, read-out: % inh of Smad2/3 phosphorylation in PANC-1; for IC50: PANC-1, TGF-b1 stimulated
Protocol: Cell lines: Human tumor-derived pancreatic cancer cell line Panc-1 and mouse muscle myoblast C2C12 were purchased from American Type Culture Collection and grown in complete DMEM-High Glucose, supplemented with penicillin (100 U/mL), streptomycin (100 μg/mL), and 10% heat-inactivated FBS at 37° C. in a humidified incubator with 5% CO2.
Method: Cells were plated at 350000 cells/well density in a 12-well plate, allowed 3 hours to adhere to the plate, then starved in the appropriate medium in the presence of 0.5% FBS overnight. The small molecules to be tested were added to the cells in the final concentration of 10 μM in the presence of 0.3% DMSO for 3 hours incubation at 37° C. For IC50 value determination, serial dilutions of compounds were added to cells under the same conditions. Next, Panc-1 cells were stimulated with 10 ng/ml TGF-b1 for 1 hour, and C2C12 cells were stimulated with 10 ng/ml TGF-b1 for 20 minutes (recombinant human TGF-b1, R&D Systems). After stimulation cells were lysed with lysis buffer containing 1% Triton X-100, EDTA, and Halt™ Protease & Phosphatase Inhibitor Cocktail (Thermo Scientific). Protein concentration was assessed by BCA protein assay (Thermo Scientific). Phosphorylation level of Smad2/Smad3 was determined by western blot.
Western blot protocol: Equal amounts of protein (15-50 μg) were separated by SDS-PAGE and transferred to nitrocellulose membranes (Invitrogen by Thermo Fisher Scientific). The membrane was stained with Ponceau S Stain (Boston BioProducts) to verify uniform protein loading. Membranes were blocked with 10% milk and phosphorylation levels of Smad2/Smad3 were assessed by incubating overnight at 4° C. with the following antibodies: Phospho-Smad2 (Ser465/467) and Phosph-Smad3 (Ser423/425), both from Cell Signaling Technology. Then the membranes were incubated with HRP-conjugated secondary antibody (Jackson Immunoresearch, West Grove, PA). Bands were incubated in Amersham ECL Prime Western Blotting Detection Reagent (GE Healthcare) and visualized using the ChemiDoc MP imaging system (Bio-Rad).

KRas G12C mutant = KRas G12C mutant (Homo sapiens (Human), UniProt P01116, G12C); experiment: Ras GTP Binding Domain Inhibition Assay, KRas G12C mutant
Protocol: as §1, §2, §3, §4, §5

KRas Q61H mutant = KRas Q61H mutant (Homo sapiens (Human), UniProt P01116, Q61H); experiment: Ras GTP Binding Domain Inhibition Assay, KRas Q61H mutant
Protocol: as §1, §2, §3, §4, §5

[1] = + SOS, read-out: KRas G12D mutant + SOS: % inh.
[2] = without SOS, read-out: KRas G12D mutant: % inh.
[3] = + SOS, read-out: KRas G12C mutant + SOS: % inh.
[4] = without SOS, read-out: KRas G12C mutant: % inh.
[5] = + SOS, read-out: KRas Q61H mutant + SOS: % inh.
[6] = without SOS, read-out: KRas Q61H mutant: % inh.

KRas G12C mutant, sequence (P01116 other isoform, or with tags, fused parts or gaps G12C): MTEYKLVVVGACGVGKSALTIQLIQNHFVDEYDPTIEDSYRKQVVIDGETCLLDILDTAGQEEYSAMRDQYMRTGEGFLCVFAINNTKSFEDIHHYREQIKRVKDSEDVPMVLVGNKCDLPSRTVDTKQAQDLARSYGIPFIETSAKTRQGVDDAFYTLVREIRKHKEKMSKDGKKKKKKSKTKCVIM
KRas G12D mutant, sequence (P01116 other isoform, or with tags, fused parts or gaps G12D): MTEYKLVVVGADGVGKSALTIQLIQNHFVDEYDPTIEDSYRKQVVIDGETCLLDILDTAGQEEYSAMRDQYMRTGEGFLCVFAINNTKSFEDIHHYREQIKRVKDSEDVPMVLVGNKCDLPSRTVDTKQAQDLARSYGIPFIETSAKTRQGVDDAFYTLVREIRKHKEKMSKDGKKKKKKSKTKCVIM
KRas Q61H mutant, sequence (P01116 other isoform, or with tags, fused parts or gaps Q61H): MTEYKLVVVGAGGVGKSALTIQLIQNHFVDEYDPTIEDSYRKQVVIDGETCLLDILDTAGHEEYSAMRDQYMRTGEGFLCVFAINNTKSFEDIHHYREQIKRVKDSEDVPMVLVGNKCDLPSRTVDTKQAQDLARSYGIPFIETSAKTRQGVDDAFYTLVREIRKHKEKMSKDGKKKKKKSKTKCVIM

SMILES | inhibition at 20 µM (KRas G12D mutant; [1]) [%] | KRas G12D mutant + SOS: % inh. (KRas G12D mutant; + SOS) | inhibition at 20 µM (KRas G12D mutant; [2]) [%] | KRas G12D mutant: % inh. (KRas G12D mutant; without SOS) | inhibition at 10 µM (Smad2/3 phosphorylation) [%] | IC50 (Smad2/3 phosphorylation) [µM] | inhibition at 20 µM (KRas G12C mutant; [3]) [%] | inhibition at 20 µM (KRas G12C mutant; [4]) [%] | inhibition at 20 µM (KRas Q61H mutant; [5]) [%] | inhibition at 20 µM (KRas Q61H mutant; [6]) [%] | IC50 (KRas Q61H mutant; + SOS) [µM]
CO[C@H]1CC[C@@H](Nc2nc(-c3nccn3C)nc3sc(-c4ccn(C)n4)c(-c4ccccc4)c23)C1 (racemic) [Compound 5, rac-N-((1R,3S)-3-Methoxycyclopentyl)-2-(1-methyl-1H-imidazol-2-yl)-6-(1-methyl-1H-pyrazol-3-yl)-5-phenylthieno[2,3-d]pyrimidin-4-amine] | 46 to 75 | C (C = 46-75% inhibition) | 1 to 25 | A (A = 1-25% inhibition) | 76 to 100 | 5 to 10 | 76 to 100 | 26 to 45 | 76 to 100 | 26 to 45 | –
COc1cccc(-c2sc3nc(-c4nccn4C)nc(NC4CCC(OC)C4)c3c2C)c1F (racemic) [Compound 10, rac-6-(2-Fluoro-3-methoxyphenyl)-N-((1R,3S)-3-methoxycyclopentyl)-5-methyl-2-(1-methyl-1H-imidazol-2-yl)thieno[2,3-d]pyrimidin-4-amine and rac-6-(2-Fluoro-3-methoxyphenyl)-N-((1R,3R)-3-methoxycyclopentyl)-5-methyl-2-(1-methyl-1H-imidazol-2-yl)thieno[2,3-d]pyrimidin-4-amine] | 46 to 75 | C (C = 46-75% inhibition) | 76 to 100 | D (D = 76-100% inhibition) | 1 to 25 | – | 46 to 75 | 76 to 100 | 46 to 75 | 46 to 75 | –
CO[C@H]1CC[C@@H](Nc2nc(-c3nccn3C)nc3sc(-c4ccn(C(C)C)n4)c(C)c23)C1 (racemic) [Compound 12, rac-6-(1-Isopropyl-1H-pyrazol-3-yl)-N-((1R,3S)-3-methoxycyclopentyl)-5-methyl-2-(1-methyl-1H-imidazol-2-yl)thieno[2,3-d]pyrimidin-4-amine] | 46 to 75 | C (C = 46-75% inhibition) | 46 to 75 | C (C = 46-75% inhibition) | 1 to 25 | – | 76 to 100 | 46 to 75 | 76 to 100 | 76 to 100 | 5 to 10
CO[C@@H]1CC[C@H](Nc2nc(-c3nccn3C)nc3sc(-c4ccn(C(C)C)n4)c(-c4ccccc4)c23)C1 (single isomer, unassigned) [Compound 11] | 46 to 75 | C (C = 46-75% inhibition) | 46 to 75 | C (C = 46-75% inhibition) | 46 to 75 | – | 76 to 100 | 46 to 75 | 76 to 100 | 46 to 75 | 1 to 4.99
COCCNc1nc(-c2nccn2C)nc2sc(-c3ccccc3)c(-c3ccccc3)c12 [Compound 1, N-(2-Methoxyethyl)-2-(1-methyl-1H-imidazol-2-yl)-5,6-diphenylthieno[2,3-d]pyrimidin-4-amine] | 1 to 25 | A (A = 1-25% inhibition) | 76 to 100 | D (D = 76-100% inhibition) | 46 to 75 | – | – | 46 to 75 | 46 to 75 | 46 to 75 | –
COCCN(C)c1nc(-c2nccn2C)nc2sc(-c3ccccc3)c(-c3ccccc3)c12 [Compound 2, N-(2-Methoxyethyl)-N-methyl-2-(1-methyl-1H-imidazol-2-yl)-5,6-diphenylthieno[2,3-d]pyrimidin-4-amine] | – | – | 46 to 75 | C (C = 46-75% inhibition) | 0 | – | – | 26 to 45 | – | – | –
COCCCNc1nc(-c2nccn2C)nc2sc(-c3ccccc3)c(-c3ccccc3)c12 [Compound 3, N-(3-Methoxypropyl)-2-(1-methyl-1H-imidazol-2-yl)-5,6-diphenylthieno[2,3-d]pyrimidin-4-amine] | 1 to 25 | A (A = 1-25% inhibition) | 46 to 75 | C (C = 46-75% inhibition) | 0 | – | – | 46 to 75 | 46 to 75 | 46 to 75 | –
COCCNc1nc(-c2nccn2C)nc2sc(-c3ccccc3)c(-c3ccccc3Cl)c12 [Compound 4, 5-(2-Chlorophenyl)-N-(2-methoxyethyl)-2-(1-methyl-1H-imidazol-2-yl)-6-phenylthieno[2,3-d]pyrimidin-4-amine] | – | – | 26 to 45 | B (B = 26-45% inhibition) | 26 to 45 | – | – | 26 to 45 | – | – | –
COC1CCN(c2nc(-c3nccn3C)nc3sc(-c4ccn(C)n4)c(-c4ccccc4)c23)CC1 [Compound 6, 4-(4-Methoxypiperidin-1-yl)-2-(1-methyl-1H-imidazol-2-yl)-6-(1-methyl-1H-pyrazol-3-yl)-5-phenylthieno[2,3-d]pyrimidine] | 26 to 45 | B (B = 26-45% inhibition) | 26 to 45 | B (B = 26-45% inhibition) | 0 | – | 46 to 75 | 26 to 45 | 46 to 75 | 46 to 75 | –
COCCNc1nc(-c2nccn2C)nc2sc(-c3cccc(OC)c3Cl)c(-c3ccc(OC)cc3)c12 [Compound 7, 6-(2-Chloro-3-methoxyphenyl)-N-(2-methoxyethyl)-5-(4-methoxyphenyl)-2-(1-methyl-1H-imidazol-2-yl)thieno[2,3-d]pyrimidin-4-amine] | 26 to 45 | B (B = 26-45% inhibition) | 26 to 45 | B (B = 26-45% inhibition) | 0 | 5 to 10 | 76 to 100 | 26 to 45 | 76 to 100 | 26 to 45 | –

From patent US20240124483A1, “Methods for the Treatment of Fibrotic Disease” (SHY Therapeutics, LLC, priority 2021, published 2024)
